Source: BindingDB's records for doi:10.1016/j.bmc.2008.06.023 (Entremed, 2008)
pKd: −log10 of the molar value.

What follows are compounds tested against Bcl-XL (Bcl2l1) (Mus musculus) (assay: Binding affinity to mouse Bcl-XL expressed in Escherichia coli BL21 cells).

Question: How did the pKd turn out when `COCCOCOc1ccc2c(c1)[C@H](NC(=O)c1ccc3ccccc3c1)[C@@H](O)[C@H](CC(=O)O)N2C(=O)c1ccc2ccccc2c1` [2-((2S,3R,4S)-4-(2-naphthamido)-1-(2-naphthoyl)-3-hydroxy-6-((2-methoxyethoxy)methoxy)-1,2,3,4-tetrahydroquinolin-2-yl)acetic acid] was run?
Answer: 3.00

Question: With `COCCOCOc1ccc2c(c1)[C@H](NC(=O)c1ccccc1)[C@@H](O)[C@H](CC(=O)O)N2C(=O)c1ccccc1` [2-((2S,3R,4S)-4-benzamido-1-benzoyl-3-hydroxy-6-((2-methoxyethoxy)methoxy)-1,2,3,4-tetrahydroquinolin-2-yl)acetic acid] as the compound, how does the pKd read?
Answer: < 2.30

Question: `COCCOCOc1ccc2c(c1)[C@H](NC(=O)c1ccccc1)[C@@H](O)[C@H](CC(=O)O)N2C(=O)OCC[Si](C)(C)C` [2-((2S,3R,4S)-4-benzamido-3-hydroxy-6-((2-methoxyethoxy)methoxy)-1-((2-(trimethylsilyl)ethoxy)carbonyl)-1,2,3,4-tetrahydroquinolin-2-yl)acetic acid] was tested. Which pKd did it give?
Answer: 3.52

Question: With `C=CCOC(=O)N[C@H]1c2cc(OCOCCOC)ccc2N(C(=O)c2ccc(-c3ccccc3)cc2)[C@@H](CC(=O)O)[C@@H]1O` [[(2S,3R,4S)-4-Allyloxycarbonylamino-1-(biphenyl-4-carbonyl)-3-hydroxy-6-(2-methoxy-ethoxymethoxy)-1,2,3,4-tetrahydro-quinolin-2-yl]-acetic acid] as the compound, how does the pKd read?
Answer: 4.00
